# Literature values in patent publication US20210393545A1, “NATURAL PRODUCT COMPOSITION FOR STIMULATING HAIR GROWTH” (priority 2018, published 2021).
# Legend:
# [1] = target: T1, OR2AT4 (Homo sapiens, UniProt A6NND4); conditions: human hair follicles ex vivo
# T1 construct: from tissue; host or cells: human hair follicles (outer root sheath epithelium), ex vivo
# T1 sequence (A6NND4 1-320): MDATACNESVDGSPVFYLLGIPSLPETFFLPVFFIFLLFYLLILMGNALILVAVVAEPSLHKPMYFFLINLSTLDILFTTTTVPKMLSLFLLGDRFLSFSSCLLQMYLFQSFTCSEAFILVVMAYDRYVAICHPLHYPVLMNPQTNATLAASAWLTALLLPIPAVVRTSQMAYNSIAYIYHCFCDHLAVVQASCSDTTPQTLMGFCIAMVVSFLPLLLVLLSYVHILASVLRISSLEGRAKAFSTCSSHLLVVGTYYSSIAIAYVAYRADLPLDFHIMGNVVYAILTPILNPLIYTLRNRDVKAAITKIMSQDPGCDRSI
# [2] = tested on: testosterone 5 alpha reductase; conditions: reported in the literature
SMILES,apoptosis [1],human hair growth ex vivo [1],production of IGF-1 [1],5 alpha reductase activity [2]
"CC1=CCC(CCC(C)C(C)O)C1(C)C (stereo not shown) [Sandalore®, 3-methyl-5(2,2,3-Trimethylcyclepent-3-en-1-yl) pentan-2-ol]",decreasing apoptosis,prolongs human hair growth ex vivo,increasing production of the anagen-prolonging growth factor IGF-1,–
CC(C)c1cc2c(c(O)c1O)[C@@]1(C(=O)O)CCCC(C)(C)[C@@H]1CC2 [carnosic acid],–,–,–,active ingredient in suppressing 5 alpha reductase activity
